For this test, the target named is T1, ITK (Homo sapiens, UniProt Q08881).
T1 sequence (Q08881 1-620): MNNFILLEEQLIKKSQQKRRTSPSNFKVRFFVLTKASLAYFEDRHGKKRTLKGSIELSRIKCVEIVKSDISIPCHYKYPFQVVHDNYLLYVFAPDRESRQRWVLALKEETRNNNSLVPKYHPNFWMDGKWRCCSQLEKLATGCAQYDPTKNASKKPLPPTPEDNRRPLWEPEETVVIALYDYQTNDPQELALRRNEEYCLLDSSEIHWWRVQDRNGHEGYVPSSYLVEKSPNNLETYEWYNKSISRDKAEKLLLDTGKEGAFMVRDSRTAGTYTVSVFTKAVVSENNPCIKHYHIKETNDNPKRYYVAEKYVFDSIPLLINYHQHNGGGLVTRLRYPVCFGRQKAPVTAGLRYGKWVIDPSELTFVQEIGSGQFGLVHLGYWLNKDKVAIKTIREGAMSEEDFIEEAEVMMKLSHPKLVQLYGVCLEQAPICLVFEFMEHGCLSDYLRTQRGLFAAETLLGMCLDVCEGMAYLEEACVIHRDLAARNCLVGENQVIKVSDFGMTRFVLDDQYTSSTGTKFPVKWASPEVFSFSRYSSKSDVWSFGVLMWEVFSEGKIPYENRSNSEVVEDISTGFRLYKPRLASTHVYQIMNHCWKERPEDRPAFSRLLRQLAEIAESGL
The test can be described thus: ITK degradation HiBiT assay. The class given is cell-based. On the set-up: expressed in transfected cells; host or cells: Molt4 (ATCC CRL-1552), monoclonal clone 1C10, engineered to carry the HiBiT tag. The conditions noted are these: 4 hrs; for Dmax: MOLT-4, C-terminal HiBiT-tagged Molt4 cells. The essentials: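 C-terminal HiBiT-tagged Molt4 cells (clone 1C10) treated 4 h at 32° C with an 11-point, 5-fold compound dilution series (0.5% DMSO). HiBiT lytic detection with LgBiT then luminescence read; % ITK remaining versus concentration fit by four-parameter variable-slope model to give DC50 and Dmax.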

[1] abbreviates: C-terminal HiBiT-tagged Molt4 cells.

One may read the DC50 as the concentration giving 50% degradation. A higher DC50 goes with a less potent degrader. What is called Dmax is the greatest extent of degradation seen. A low value points to shallow degradation.

On to `C[C@@]12Cc3[nH]nc(C(=O)Nc4cnn([C@H]5CCN(C[C@H]6CCN(c7ccc(C8CCC(=O)NC8=O)cc7)C6)C[C@@H]5F)c4)c3C[C@@H]1C2(F)F` (stereo partly drawn) [Compound 98, (4aS,5aR)-N-(1-((3S,4S)-1-(((3R)-1-(4-(2,6-dioxopiperidin-3-yl)phenyl)pyrrolidin-3-yl)methyl)-3-fluoropiperidin-4-yl)-1H-pyrazol-4-yl)-5,5-difluoro-5a-methyl-1,4,4a,5,5a,6-hexahydrocyclopropa[f]indazole-3-carboxamide], for which the Dmax was found to be 89%. Further, the half-maximal degradation concentration (DC50) under setting [1] was found to be 0.7 nM.

For the molecule `C[C@@]12Cc3[nH]nc(C(=O)Nc4cnn([C@@H]5CCN(C[C@H]6CCN(c7ccc(C8CCC(=O)NC8=O)cc7)C6)C[C@H]5F)c4)c3C[C@@H]1C2(F)F` (stereo partly drawn) [Compound 99, (4aS,5aR)-N-(1-((3R,4R)-1-(((3R)-1-(4-(2,6-dioxopiperidin-3-yl)phenyl)pyrrolidin-3-yl)methyl)-3-fluoropiperidin-4-yl)-1H-pyrazol-4-yl)-5,5-difluoro-5a-methyl-1,4,4a,5,5a,6-hexahydrocyclopropa[f]indazole-3-carboxamide], the Dmax stood at 85%. The molecule also displayed a DC50 under setting [1] of 3.7 nM.

With `C[C@@]12Cc3[nH]nc(C(=O)Nc4cnn([C@H]5CCN(C[C@@H]6CCN(c7ccc(C8CCC(=O)NC8=O)cc7)C6)C[C@@H]5F)c4)c3C[C@@H]1C2(F)F` (stereo partly drawn) [Compound 100, (4aS,5aR)-N-(1-((3S,4S)-1-(((3S)-1-(4-(2,6-dioxopiperidin-3-yl)phenyl)pyrrolidin-3-yl)methyl)-3-fluoropiperidin-4-yl)-1H-pyrazol-4-yl)-5,5-difluoro-5a-methyl-1,4,4a,5,5a,6-hexahydrocyclopropa[f]indazole-3-carboxamide], the Dmax amounted to 86%. Under setting [1], this molecule came in with a DC50 of 1.7 nM.

Regarding `C[C@@]12Cc3[nH]nc(C(=O)Nc4cnn([C@@H]5CCN(C[C@@H]6CCN(c7ccc(C8CCC(=O)NC8=O)cc7)C6)C[C@H]5F)c4)c3C[C@@H]1C2(F)F` (stereo partly drawn) [Compound 101, (4aS,5aR)-N-(1-((3R,4R)-1-(((3S)-1-(4-(2,6-dioxopiperidin-3-yl)phenyl)pyrrolidin-3-yl)methyl)-3-fluoropiperidin-4-yl)-1H-pyrazol-4-yl)-5,5-difluoro-5a-methyl-1,4,4a,5,5a,6-hexahydrocyclopropa[f]indazole-3-carboxamide], the maximal degradation (Dmax) came out at 87%. Under setting [1], this molecule had a DC50 of 1.1 nM.

As to `C[C@@]12Cc3[nH]nc(C(=O)Nc4ccc(C5CCN(CC6CCN(c7ccc(C8CCC(=O)NC8=O)cc7)CC6)CC5)cc4)c3C[C@@H]1C2(F)F` (stereo partly drawn) [Compound 108, (4aS,5aR)-N-(4-(1-((1-(4-(2,6-dioxopiperidin-3-yl)phenyl)piperidin-4-yl)methyl)piperidin-4-yl)phenyl)-5,5-difluoro-5a-methyl-1,4,4a,5,5a,6-hexahydrocyclopropa[f]indazole-3-carboxamide], the greatest degradation seen (Dmax) was determined as 88%. This molecule displayed a DC50 under setting [1] of 1.8 nM.

In turn, `C[C@@]12Cc3[nH]nc(C(=O)Nc4ccc(C5CCN(CC6CCN(c7ccc(C8CCC(=O)NC8=O)cn7)CC6)CC5)cc4)c3C[C@@H]1C2(F)F` (stereo partly drawn) [Compound 109, (4aS,5aR)-N-(4-(1-((1-(5-(2,6-dioxopiperidin-3-yl)pyridin-2-yl)piperidin-4-yl)methyl)piperidin-4-yl)phenyl)-5,5-difluoro-5a-methyl-1,4,4a,5,5a,6-hexahydrocyclopropa[f]indazole-3-carboxamide] gave a Dmax of 91%. Also, the half-maximal degradation concentration (DC50) under setting [1] worked out at 0.73 nM.

The molecule `C[C@@]12Cc3[nH]nc(C(=O)Nc4ccc(C5CCN(CC6CCN(c7ccc(C8CCC(=O)NC8=O)cc7)CC6)CC5)nc4)c3C[C@@H]1C2(F)F` (stereo partly drawn) [Compound 110, (4aS,5aR)-N-(6-(1-((1-(4-(2,6-dioxopiperidin-3-yl)phenyl)piperidin-4-yl)methyl)piperidin-4-yl)pyridin-3-yl)-5,5-difluoro-5a-methyl-1,4,4a,5,5a,6-hexahydrocyclopropa[f]indazole-3-carboxamide] had a maximal degradation (Dmax) of 88%. The molecule further displayed a 50% degradation concentration (DC50) under setting [1] of 1.7 nM.

The molecule `C[C@@]12Cc3[nH]nc(C(=O)Nc4ccc(C5CCN(CC6CCN(c7ccc(C8CCC(=O)NC8=O)cn7)CC6)CC5)nc4)c3C[C@@H]1C2(F)F` (stereo partly drawn) [Compound 111, (4aS,5aR)-N-(6-(1-((1-(5-(2,6-dioxopiperidin-3-yl)pyridin-2-yl)piperidin-4-yl)methyl)piperidin-4-yl)pyridin-3-yl)-5,5-difluoro-5a-methyl-1,4,4a,5,5a,6-hexahydrocyclopropa[f]indazole-3-carboxamide] displayed a Dmax of 90%. Half-maximal degradation under setting [1] (DC50) was put at 1.2 nM.

Regarding `C[C@@]12Cc3[nH]nc(C(=O)Nc4cnn(C5CCN(CC6CCN(c7ccc(N8CCC(=O)NC8=O)cn7)CC6)CC5)c4)c3C[C@@H]1C2(F)F` [Compound 113, (4aS,5aR)-N-{1-[1-({1-[5-(2,4-dioxo-1,3-diazinan-1-yl)pyridin-2-yl]piperidin-4-yl}methyl)piperidin-4-yl]-1H-pyrazol-4-yl}-5,5-difluoro-5a-methyl-1H,4H,4aH,5H,5aH,6H-cyclopropa[f]indazole-3-carboxamide], the greatest degradation seen (Dmax) was 80%. Besides, the half-maximal degradation concentration (DC50) under setting [1] was determined as 0.4 nM.

Turning to `C[C@@]12Cc3[nH]nc(C(=O)Nc4cnn(C5CCN(CC6CCN(c7ccc([C@@H]8CCC(=O)NC8=O)cc7)CC6)CC5)c4)c3C[C@@H]1C2(F)F` [Compound 116, (4aS,5aR)-N-(1-{1-[(1-{4-[(3S)-2,6-dioxopiperidin-3-yl]phenyl}piperidin-4-yl)methyl]piperidin-4-yl}-1H-pyrazol-4-yl)-5,5-difluoro-5a-methyl-1H,4H,4aH,5H,5aH,6H-cyclopropa[f]indazole-3-carboxamide], under setting [1], the DC50 amounted to 0.9 nM and the “HiBiT DMax (%)” value worked out at 89%.

`C[C@@]12Cc3[nH]nc(C(=O)Nc4cnn(C5CCN(CC6CCN(c7ccc([C@H]8CCC(=O)NC8=O)cc7F)CC6)CC5)c4)c3C[C@@H]1C2(F)F` [Compound 118, (4aS,5aR)-N-(1-{1-[(1-{4-[(3R)-2,6-dioxopiperidin-3-yl]-2-fluorophenyl}piperidin-4-yl)methyl]piperidin-4-yl}-1H-pyrazol-4-yl)-5,5-difluoro-5a-methyl-1H,4H,4aH,5H,5aH,6H-cyclopropa[f]indazole-3-carboxamide] returned a Dmax of 77%. The molecule also came in with a half-maximal degradation concentration (DC50) under setting [1] of 0.467 nM.

Turning to `CC1(C)CCc2c(C(=O)Nc3cnn(C4CCN(CC5CCN(c6ccc([C@@H]7CCC(=O)NC7=O)cc6)CC5)CC4)c3)n[nH]c2C1` [Compound 121, N-(1-{1-[(1-{4-[(3S)-2,6-dioxopiperidin-3-yl]phenyl}piperidin-4-yl)methyl]piperidin-4-yl}-1H-pyrazol-4-yl)-6,6-dimethyl-4,5,6,7-tetrahydro-1H-indazole-3-carboxamide], the maximal degradation (Dmax) turned out to be 76%. The same molecule yielded a 50% degradation concentration (DC50) under setting [1] of 2.03 nM.

`C[C@@]12Cc3[nH]nc(C(=O)Nc4cnn(C5CCC(CN6CCC(Oc7ccc(C8CCC(=O)NC8=O)cn7)CC6)CC5)c4)c3C[C@@H]1C2(F)F` (stereo partly drawn) [Compound 124, (4aS,5aR)-5,5-difluoro-5a-methyl-N-{1-[(1rs,4rs)-4-{[4-({5-[(3R)-2,6-dioxopiperidin-3-yl]pyridin-2-yl}oxy)piperidin-1-yl]methyl}cyclohexyl]-1H-pyrazol-4-yl}-1H,4H,4aH,5H,5aH,6H-cyclopropa[f]indazole-3-carboxamide] came in with a Dmax of 90%. The 50% degradation concentration (DC50) under setting [1] came out at 3.7 nM.

The values above are taken from patent US20240279202A1 (NURIX THERAPEUTICS, INC., priority 2021, published 2024).
